Assay results from ChEMBL document CHEMBL1201862, “PubChem BioAssay data set” (2004).
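96-well plates; 48 h exposure; 5 concentrations. Endpoints by linear interpolation between flanking doses. Not reached: highest tested concentration assigned. Abbreviation: GI50, concentration required for 50% inhibition of growth.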 The source made the active and inactive calls. Rule as the data show it: active = GI50 up to about 1.1 µM and inactive = higher.

Columns and labels:
Experiment in all cases: NCI-60 cell line screen, 48 h
UO-31 = system: UO-31
HOP-92 = system: HOP-92
OVCAR-3 = system: OVCAR-3
PC-3 = system: PC-3
SNB-75 = system: SNB-75
MCF7 = system: MCF7
K562 = system: K562
SF-539 = system: SF-539
TK-10 = system: TK-10
SW-620 = system: SW-620
T47D = system: T47D
KM12 = system: KM12
M14 = system: M14
NCI-H460 = system: NCI-H460
NCI-H522 = system: NCI-H522
BT-549 = system: BT-549
A498 = system: A498
RXF 393 = system: RXF 393
SF-295 = system: SF-295
Malme-3M = system: Malme-3M

Row | Compound | GI50 (UO-31) | GI50 (HOP-92) | GI50 (OVCAR-3) | GI50 (PC-3) | GI50 (SNB-75) | GI50 (MCF7) | GI50 (K562) | GI50 (SF-539) | GI50 (TK-10) | GI50 (SW-620) | GI50 (T47D) | GI50 (KM12) | GI50 (M14) | GI50 (NCI-H460) | GI50 (NCI-H522) | GI50 (BT-549) | GI50 (A498) | GI50 (RXF 393) | GI50 (SF-295) | GI50 (Malme-3M)
1 | N#C/C(=C\NC(=S)c1ccncc1)c1nc2ccccc2s1 | > 100 µM (inactive) | > 100 µM (inactive) | 43.4 µM (inactive) | > 100 µM (inactive) | 68.1 µM (inactive) | 76.9 µM (inactive) | > 100 µM (inactive) | > 100 µM (inactive) | 65.2 µM (inactive) | > 100 µM (inactive) | 37.9 µM (inactive) | > 100 µM (inactive) | > 100 µM (inactive) | 68.7 µM (inactive) | > 100 µM (inactive) | > 100 µM (inactive) | > 100 µM (inactive) | > 100 µM (inactive) | > 100 µM (inactive) | 
2 | O=[N+]([O-])c1ccc(C[S+]([O-])Cc2ccccc2)cc1 (stereo not drawn) | > 100 µM (inactive) | > 100 µM (inactive) | > 100 µM (inactive) | > 100 µM (inactive) | 39.9 µM (inactive) | > 100 µM (inactive) | > 100 µM (inactive) | > 100 µM (inactive) | > 100 µM (inactive) | > 100 µM (inactive) | > 100 µM (inactive) | > 100 µM (inactive) | > 100 µM (inactive) | > 100 µM (inactive) | > 100 µM (inactive) | > 100 µM (inactive) | > 100 µM (inactive) | > 100 µM (inactive) | > 100 µM (inactive) | > 100 µM (inactive)
3 | CC(=O)Nc1nc(O)c2nc(C=O)cnc2n1 | > 100 µM (inactive) | > 100 µM (inactive) | > 100 µM (inactive) | > 100 µM (inactive) | > 100 µM (inactive) | > 100 µM (inactive) | > 100 µM (inactive) | > 100 µM (inactive) | > 100 µM (inactive) | > 100 µM (inactive) | > 100 µM (inactive) | > 100 µM (inactive) | > 100 µM (inactive) | > 100 µM (inactive) | > 100 µM (inactive) | > 100 µM (inactive) | > 100 µM (inactive) | > 100 µM (inactive) | > 100 µM (inactive) | > 100 µM (inactive)
4 | COc1ccccc1NC(=O)CC(=O)N1N=C(C)C(/N=N/c2ccc(C(=O)O)cc2)C1=O (stereo not drawn) | > 100 µM (inactive) | 28.2 µM (inactive) | > 100 µM (inactive) | > 100 µM (inactive) | 2.24 µM (inactive) | > 100 µM (inactive) | > 100 µM (inactive) | > 100 µM (inactive) | > 100 µM (inactive) | > 100 µM (inactive) | > 100 µM (inactive) | > 100 µM (inactive) | > 100 µM (inactive) |  | > 100 µM (inactive) | > 100 µM (inactive) | > 100 µM (inactive) | > 100 µM (inactive) | > 100 µM (inactive) | > 100 µM (inactive)
5 | CCC(c1ccc2cc(O)ccc2c1)C(C)(C)C(=O)O (stereo not drawn) | > 100 µM (inactive) | > 100 µM (inactive) | > 100 µM (inactive) | > 100 µM (inactive) | > 100 µM (inactive) | > 100 µM (inactive) | > 100 µM (inactive) | > 100 µM (inactive) | > 100 µM (inactive) | > 100 µM (inactive) | > 100 µM (inactive) | > 100 µM (inactive) | > 100 µM (inactive) | > 100 µM (inactive) | > 100 µM (inactive) | > 100 µM (inactive) | > 100 µM (inactive) | > 100 µM (inactive) | > 100 µM (inactive) | > 100 µM (inactive)
6 | CCC(=O)Nc1cccc(NC(=O)c2c(Cl)c(Cl)c(Cl)c(Cl)c2-c2nc3ccccc3[nH]2)c1 | 21.7 µM (inactive) | 5.36 µM (inactive) | > 100 µM (inactive) | 44.8 µM (inactive) | 3.94 µM (inactive) | 12.7 µM (inactive) | 25.4 µM (inactive) | > 100 µM (inactive) |  | > 100 µM (inactive) | 7.82 µM (inactive) | 0.0968 µM (active) | 29 µM (inactive) | 37.8 µM (inactive) | 56.2 µM (inactive) | 87.3 µM (inactive) | > 100 µM (inactive) | 21.6 µM (inactive) | 0.0417 µM (active) | > 100 µM (inactive)
7 | Cc1c(C)c2c(c(N)c1C#N)C(=O)N(O)C2=O | > 100 µM (inactive) | > 100 µM (inactive) | > 100 µM (inactive) | > 100 µM (inactive) | 45.2 µM (inactive) | > 100 µM (inactive) | > 100 µM (inactive) | > 100 µM (inactive) | > 100 µM (inactive) | > 100 µM (inactive) | > 100 µM (inactive) | > 100 µM (inactive) | > 100 µM (inactive) | > 100 µM (inactive) | > 100 µM (inactive) | > 100 µM (inactive) | > 100 µM (inactive) | > 100 µM (inactive) | > 100 µM (inactive) | > 100 µM (inactive)
8 | CN(C)c1ccc(/C=C(\NC(=O)c2ccccc2)C(=O)NCC(=O)O)cc1 | > 100 µM (inactive) | > 100 µM (inactive) | > 100 µM (inactive) | > 100 µM (inactive) | > 100 µM (inactive) | > 100 µM (inactive) | > 100 µM (inactive) | > 100 µM (inactive) |  | > 100 µM (inactive) | > 100 µM (inactive) | > 100 µM (inactive) | > 100 µM (inactive) | > 100 µM (inactive) | > 100 µM (inactive) | > 100 µM (inactive) | > 100 µM (inactive) | > 100 µM (inactive) | > 100 µM (inactive) | > 100 µM (inactive)
9 | O=C(/C=C1\N=C(c2ccccc2)N(c2nc3ccc(Sc4ccccc4)cc3[nH]2)C1=O)/C=C/c1ccccc1 | 53.3 µM (inactive) | 37.8 µM (inactive) | 29.6 µM (inactive) | 30.5 µM (inactive) | 16.7 µM (inactive) | 30.1 µM (inactive) | 26.2 µM (inactive) |  | 29.2 µM (inactive) | 33.9 µM (inactive) | 22.6 µM (inactive) | 26.7 µM (inactive) | 33.3 µM (inactive) | 30.2 µM (inactive) | 20.3 µM (inactive) | 31.1 µM (inactive) | 27.9 µM (inactive) | 22.8 µM (inactive) | 28.2 µM (inactive) | 34.7 µM (inactive)
10 | Cc1ccc2nc(-c3ccc(-n4c(C)nc(=O)c(-c5ccc(F)cc5)c4C)cc3)sc2c1 | 15 µM (inactive) | 17.6 µM (inactive) | 13.9 µM (inactive) | 12.4 µM (inactive) | 13.7 µM (inactive) | 13.3 µM (inactive) | 10.8 µM (inactive) |  | 16.1 µM (inactive) | 21.6 µM (inactive) | 3.3 µM (inactive) | 17.3 µM (inactive) | 12.7 µM (inactive) |  | 15.1 µM (inactive) | 14.5 µM (inactive) | 18.2 µM (inactive) | 9.75 µM (inactive) | 17.5 µM (inactive) | 14.5 µM (inactive)
11 | CC1=NN2C(=N)/C(=C/c3ccccc3)C(=O)N=C2S1 | > 100 µM (inactive) | > 100 µM (inactive) | > 100 µM (inactive) | > 100 µM (inactive) | > 100 µM (inactive) | 0.867 µM (active) | > 100 µM (inactive) | > 100 µM (inactive) | > 100 µM (inactive) | > 100 µM (inactive) | > 100 µM (inactive) | > 100 µM (inactive) | > 100 µM (inactive) | > 100 µM (inactive) | > 36.9 µM (inactive) | > 100 µM (inactive) | > 100 µM (inactive) | > 100 µM (inactive) | > 100 µM (inactive) | > 100 µM (inactive)
12 | [N-]=[N+]=NC1C(O)C(CO)OC1n1cnc2c(N)ncnc21 (stereo not drawn) | 36.6 µM (inactive) | 45.7 µM (inactive) | > 100 µM (inactive) | 74.3 µM (inactive) | 36.4 µM (inactive) | 5.21 µM (inactive) | 19.3 µM (inactive) | 27.9 µM (inactive) | > 100 µM (inactive) | 60.5 µM (inactive) | 8.83 µM (inactive) | 74.3 µM (inactive) | 36.6 µM (inactive) | 6.34 µM (inactive) | 65.8 µM (inactive) | 54.8 µM (inactive) | 66.8 µM (inactive) | 66.2 µM (inactive) | 44.1 µM (inactive) | > 100 µM (inactive)
13 | Cc1ccc(NCCN(C)C)c2c(=O)c3cc(O)ccc3oc12 | 9.2 µM (inactive) | 11.1 µM (inactive) | 16.5 µM (inactive) | 11.8 µM (inactive) | 4.79 µM (inactive) | 5.38 µM (inactive) | 4.09 µM (inactive) | 8.28 µM (inactive) | 14.6 µM (inactive) | 4.12 µM (inactive) | 16.5 µM (inactive) | 11.2 µM (inactive) | 12.4 µM (inactive) | 0.889 µM (active) | 8.15 µM (inactive) | 16.7 µM (inactive) | 14.9 µM (inactive) | 11.9 µM (inactive) | 10.9 µM (inactive) | 13.9 µM (inactive)
14 | Nc1ccn([C@@H]2C=C(CO)[C@@H](O)[C@H]2O)c(=O)n1 | 0.105 µM (active) | 0.224 µM (active) | 2.2 µM (inactive) | 0.0555 µM (active) | 2.07 µM (inactive) | 0.05 µM (active) | 0.0681 µM (active) | 0.254 µM (active) | 1.05 µM (active) | 0.0849 µM (active) | 0.483 µM (active) | 0.143 µM (active) | 0.186 µM (active) | 0.0593 µM (active) | 0.6 µM (active) | 2.06 µM (inactive) | 1.84 µM (inactive) | 0.53 µM (active) | 0.155 µM (active) | 1.86 µM (inactive)
